Tests used:
Format in all cases: functional, cell-based
[1] = test system: MCF7; experiment: Cytotoxicity against human MCF7 cells assessed as reduction in cell viability after 48 hrs by MTT assay; conditions: MCF7, 48 h
[2] = test system: A-375; experiment: Cytotoxicity against human A-375 cells assessed as reduction in cell viability after 48 hrs by MTT assay; conditions: A-375, 48 h
[3] = test system: HL-60; experiment: Cytotoxicity against human HL-60 cells assessed as reduction in cell viability after 48 hrs by MTT assay; conditions: HL-60, 48 h

Row | Compound | IC50 [1] | IC50 [2] | IC50 [3]
1 | O=C1N[C@@H]2Cc3oc4cccc(O)c4c(=O)c3[C@@]1(O)[C@@H]2O | > 10 µM | > 10 µM | > 10 µM
2 | COc1cccc2c1C(=O)c1c(O)c3c(c(O)c1C2=O)C[C@@](O)(C(=O)CO)C[C@@H]3O[C@H]1C[C@H](N)[C@H](O)[C@H](C)O1 [DOXORUBICIN] | – | 2.1 µM | 1.2 µM
3 | COC(=O)[C@@]1(O)c2c(oc3cccc(O)c3c2=O)[C@@H](O)C[C@@H]1O | > 10 µM | > 10 µM | > 10 µM
4 | COC(=O)c1c(N[C@@H]2Cc3oc4cccc(O)c4c(=O)c3[C@](O)(C(=O)OC)[C@@H]2O)ccc2oc3cccc(O)c3c(=O)c12 | > 10 µM | > 10 µM | > 10 µM
5 | COC(=O)[C@@]1(O)c2c(oc3cccc(O)c3c2=O)C[C@@H](S)[C@@H]1O | 6.5 µM | 8.6 µM | 4.9 µM
6 | COC(=O)[C@@]1(O)c2c(oc3cccc(O)c3c2=O)C[C@@H](OC)[C@H]1O | > 10 µM | > 10 µM | > 10 µM
7 | COC(=O)CCc1oc2cccc(O)c2c(=O)c1[C@H](O)C(=O)OC | > 10 µM | > 10 µM | > 10 µM
8 | COC(=O)c1c(O)ccc2oc3cc(O)cc(O)c3c(=O)c12 | > 10 µM | > 10 µM | > 10 µM

Source: ChEMBL document CHEMBL4699518, “Cytotoxic Xanthone Derivatives from the Mangrove-Derived Endophytic Fungus Peniophora incarnata Z4” (J Nat Prod, 2020)
